Values quoted from earlier work in patent US20100209419A1, “Method and formulation for treating adverse biological conditions” (priority 2008, published 2010).

Details: at 79° F.

- water solubility: 34 % w/v
Compound: CS(C)(=O)=O [MSM, methylsulfonylmethane]
